Measured values taken from US11186564B2, “Dual NAV1.2/5HT2a inhibitors for treating CNS disorders” (Sunovion Pharmaceuticals Inc., priority 2016, dated 2021).
pIC50: −log10 of the molar value. Read-outs that look alike come from different tables or passages of the source.

What was measured:
[1] = biological target: human sodium channel NaV1.2 (Homo sapiens, UniProt Q99250); test: NaV1.2 inhibition, automated patch-clamp (Q-Patch HTX), slow inactivated state (state C); type: cell-based; conditions: for IC50: reference compound
Excerpt: In vitro method for NaV1.2 inhibition assays: The methods utilized to assess the inhibitory activity of compounds on NaV1.2 were based on the methods described by Liu et al. [Liu Y, Beck E J, & Flores C M (2011): Validation of a patch clamp screening protocol that simultaneously measures compound activity in multiple states of the voltage-gated sodium channel Nav1.2. Assay Drug Development Technology 9, 628-634]. For these electrophysiology assays, a cell line (Chinese Hamster Ovarian K-1 cells (CHO K-1)) engineered to stably express human sodium channel NaV1.2 was purchased from Millipore Corporation (catalog no. CYL3023). The electrophysiology measurements were performed using automated patch-clamp methods on a Q-Patch HTX instrument by scientists at Evotec AG under contract with Sunovion.
The solutions utilized for the Qpatch experiments were similar buffered solutions to those described by Liu et al. [Liu Y, Beck E J, & Flores C M (2011)]. The extracellular solution contained 140 millimolar sodium chloride, 4 millimolar potassium chloride, 2 millimolar calcium chloride, 1 millimolar magnesium chloride, 10 millimolar 4-(2-hydroxyethyl)-1-piperazineethanesulfonic acid (HEPES), and 10 millimolar glucose (pH adjusted to 7.4 with sodium hydroxide). The intracellular solution contained 100 millimolar cesium fluoride, 45 millimolar cesium chloride, 10 millimolar HEPES, 5 millimolar ethylene glycol tetraacetic acid (EGTA), and 5 millimolar glucose (pH adjusted to 7.2 with cesium hydroxide).
The biophysical experiments of Lui et al. [Liu Y, Beck E J, & Flores C M (2011)] were replicated to assess the fast, slow and total inactivation characteristics of the human Nav1.2 channel
Based upon results from studies of the fast, slow and total inactivation characteristics of the human Nav1.2 channel, a voltage protocol involving a sequence of consecutive pulses of current was used to measure channel activity in several states [Liu Y, Beck E J, & Flores C M (2011)]. The monolayer of CHO K-1 cells stably expressing human sodium channel NaV1.2 (hNaV1.2 CHO cells) was maintained in the Qpatch instrument at a potential of −100 millivolts (mV) except when the voltage protocol was being executed. The first pulse in the protocol involved a 100 millisecond depolarization to 0 mV to enable measurement of channel availability in the closed state (state A). The potential was then maintained at −90 mV for 15 milliseconds, followed by a five millisecond period of depolarization to 0 mV to enable measurement of channel availability after partial recovery from fast inactivation (state B). Next, the potential was maintained at −90 mV for 300 milliseconds, followed by ten seconds at −50 mV, 15 milliseconds at −90 mV, and finally another five millisecond period of depolarization to 0 mV to enable measurement of channel availability after additional recovery from fast inactivation and significant entry into the slow inactivated state (state C). Finally, after an additional 300 millisecond period at −90 mV, another five millisecond period of depolarization to 0 mV was employed to enable measurement of channel availability after partial recovery from the slow inactivated state (state D). Measurements of activity at state C were used to assess the activity of the NaV1.2 channel in the slow inactivated state. Comparison of activity after addition of test compounds or reference compounds with activity after addition of vehicle only provided a measure of percent remaining activity from which percent inhibition was calculated. […] A slight modification of this protocol was utilized to provide measurements as a function of compound concentration, which enabled IC50 values to be determined. IC50 values were calculated by non-linear least squares regression of the data (percent inhibition of ion channel NaV1.2 activity in the slow inactivated state) onto equation (1): % inhibition=100%/(1+(IC50/[compound]) equation (1)
J Pharmacol Exp Ther. 2008 July; 326(1):89-99.].

[2] = biological target: T1, recombinant human serotonin receptor 5-HT2A (Homo sapiens, UniProt P28223); test: 5-HT2A antagonist Ca2+ assay in CHO-K1 cells (method A aequorin luminescence / method B FLIPR fluorescence); type: cell-based; conditions: antagonist mode vs EC80 of reference agonist, method A or B; for pIC50: read-out: 5HT2A IC50; for IC50: 5HT2A IC50, μM
T1 construct: expressed in transfected cells; method B: loaded with Ca2+ dye
Summary of the method: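 IC50 was obtained by nonlinear regression of percent inhibition of the EC80 agonist Ca2+ response in CHO-K1 cells stably expressing human 5-HT2A. The readout was aequorin luminescence with agonist injected 15 min after compound (A), or Ca2+-dye fluorescence on FLIPR with serotonin as agonist (B).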

[3] = hNaV1.2 CHO cells, slow inactivated state, read-out: NaV1.2 IC50
[4] = Test 1, read-out: IC50 (μM) for NaV1.2 slow inactivated state, Test 1
[5] = Test 2, read-out: IC50 (μM) for NaV1.2 slow inactivated state, Test 2
[6] = Test 3, read-out: IC50 (μM) for NaV1.2 slow inactivated state, Test 3

Chain of human sodium channel NaV1.2 (Q99250 whole entry): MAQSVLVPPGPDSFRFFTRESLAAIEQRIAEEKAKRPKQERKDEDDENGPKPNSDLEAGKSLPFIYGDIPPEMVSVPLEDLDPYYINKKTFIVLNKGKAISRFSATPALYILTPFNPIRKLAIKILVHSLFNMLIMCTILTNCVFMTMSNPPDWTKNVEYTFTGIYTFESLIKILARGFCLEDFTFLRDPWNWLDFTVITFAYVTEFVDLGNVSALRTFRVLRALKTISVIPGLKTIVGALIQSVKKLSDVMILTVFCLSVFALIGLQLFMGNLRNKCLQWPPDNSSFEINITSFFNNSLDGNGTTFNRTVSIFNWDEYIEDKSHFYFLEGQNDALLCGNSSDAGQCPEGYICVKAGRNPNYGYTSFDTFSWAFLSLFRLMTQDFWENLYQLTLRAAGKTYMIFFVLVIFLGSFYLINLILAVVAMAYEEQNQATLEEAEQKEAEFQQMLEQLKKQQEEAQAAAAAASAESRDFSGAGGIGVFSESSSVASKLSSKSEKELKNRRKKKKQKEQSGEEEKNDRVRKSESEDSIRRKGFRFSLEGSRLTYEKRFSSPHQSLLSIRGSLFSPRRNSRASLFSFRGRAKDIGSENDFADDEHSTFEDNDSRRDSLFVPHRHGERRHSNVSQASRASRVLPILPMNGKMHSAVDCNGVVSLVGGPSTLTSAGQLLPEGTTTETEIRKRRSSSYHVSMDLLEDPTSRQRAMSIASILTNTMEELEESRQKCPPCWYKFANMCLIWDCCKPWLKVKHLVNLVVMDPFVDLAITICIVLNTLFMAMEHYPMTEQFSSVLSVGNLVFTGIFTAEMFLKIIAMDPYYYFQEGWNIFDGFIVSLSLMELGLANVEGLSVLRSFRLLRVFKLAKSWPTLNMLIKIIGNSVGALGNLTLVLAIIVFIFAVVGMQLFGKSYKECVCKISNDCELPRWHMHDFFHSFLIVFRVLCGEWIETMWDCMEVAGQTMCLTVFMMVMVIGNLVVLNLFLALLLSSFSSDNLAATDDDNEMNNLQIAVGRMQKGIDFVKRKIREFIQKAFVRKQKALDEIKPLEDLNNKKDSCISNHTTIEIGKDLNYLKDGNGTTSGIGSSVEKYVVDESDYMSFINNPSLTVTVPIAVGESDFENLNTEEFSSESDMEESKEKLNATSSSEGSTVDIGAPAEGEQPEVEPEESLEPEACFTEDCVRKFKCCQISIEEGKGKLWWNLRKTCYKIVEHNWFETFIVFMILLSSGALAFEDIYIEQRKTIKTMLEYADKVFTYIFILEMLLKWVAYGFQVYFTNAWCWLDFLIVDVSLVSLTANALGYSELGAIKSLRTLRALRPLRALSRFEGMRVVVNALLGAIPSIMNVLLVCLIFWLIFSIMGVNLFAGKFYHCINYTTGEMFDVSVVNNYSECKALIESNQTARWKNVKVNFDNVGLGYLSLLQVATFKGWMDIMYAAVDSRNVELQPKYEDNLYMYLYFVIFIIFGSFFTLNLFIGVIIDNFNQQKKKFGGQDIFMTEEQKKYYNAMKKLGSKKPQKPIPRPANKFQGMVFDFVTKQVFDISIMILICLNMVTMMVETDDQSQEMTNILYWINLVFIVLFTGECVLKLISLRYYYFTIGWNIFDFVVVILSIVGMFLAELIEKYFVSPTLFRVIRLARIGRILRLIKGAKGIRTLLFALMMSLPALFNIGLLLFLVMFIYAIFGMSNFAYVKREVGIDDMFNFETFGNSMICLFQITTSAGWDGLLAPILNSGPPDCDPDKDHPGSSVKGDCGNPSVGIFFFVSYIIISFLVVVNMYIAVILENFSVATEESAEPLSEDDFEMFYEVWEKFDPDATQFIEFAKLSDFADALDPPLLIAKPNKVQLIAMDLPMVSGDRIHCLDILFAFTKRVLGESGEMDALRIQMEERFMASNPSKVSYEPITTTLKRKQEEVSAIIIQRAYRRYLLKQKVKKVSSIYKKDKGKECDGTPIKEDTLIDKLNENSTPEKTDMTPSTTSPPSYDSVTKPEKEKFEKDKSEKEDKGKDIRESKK
T1 sequence (P28223 whole entry): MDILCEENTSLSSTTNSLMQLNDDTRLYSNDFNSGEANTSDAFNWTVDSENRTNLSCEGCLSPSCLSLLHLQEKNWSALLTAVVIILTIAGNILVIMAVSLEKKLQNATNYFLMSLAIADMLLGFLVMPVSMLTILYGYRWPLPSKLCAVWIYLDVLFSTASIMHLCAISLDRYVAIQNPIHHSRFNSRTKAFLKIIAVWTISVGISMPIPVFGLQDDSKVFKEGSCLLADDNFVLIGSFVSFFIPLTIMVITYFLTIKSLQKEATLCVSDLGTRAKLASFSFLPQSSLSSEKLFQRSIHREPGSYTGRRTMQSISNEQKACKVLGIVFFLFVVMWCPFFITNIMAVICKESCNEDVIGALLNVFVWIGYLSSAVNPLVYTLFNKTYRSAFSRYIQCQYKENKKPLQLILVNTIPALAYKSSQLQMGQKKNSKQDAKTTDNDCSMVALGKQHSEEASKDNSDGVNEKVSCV

Structure (SMILES) | pIC50 [2] | also measured
c1ccc(OC2COC3(C2)CN(CC2CCc4ccccc42)C3)cc1 (single isomer, unassigned) [Compound 362, 2-((2,3-dihydro-1H-inden-1-yl)methyl)-7-phenoxy-5-oxa-2-azaspiro[3.4]octane] | 6.30 | pIC50 [1, 3]: 5.20
c1ccc(O[C@@H]2COC3(C2)CN(C[C@@H]2CCc4ccccc42)C3)cc1 (single isomer, unassigned) [Compound 364] | 7.10 | pIC50 [1, 3]: 6.16
c1ccc(O[C@H]2COC3(C2)CN(C[C@H]2CCc4ccccc42)C3)cc1 (single isomer, unassigned) [Compound 365] | 6.66 | pIC50 [1, 3]: 5.66
c1ccc(O[C@H]2COC3(C2)CN(C[C@@H]2CCc4ccccc42)C3)cc1 (single isomer, unassigned) [Compound 367] | 6.55 | pIC50 [1, 3]: 6.41
c1ccc([C@@H]2COC3(CCN(C[C@@H]4CCc5ccccc54)CC3)C2)cc1 (single isomer, unassigned) [Compound 376] | 7.70 | pIC50 [1, 3]: 6.29
COc1ccc2c(c1)C(CN1CCN(c3ccccc3)CC1)CC2 (stereo not drawn) [Example 54, 1-((6-methoxy-2,3-dihydro-1H-inden-1-yl)methyl)-4-phenylpiperazine] | – | pIC50 [1, 3]: 5.58
COc1ccc2c(c1)C(C)(CN1CCC(Oc3ccccc3OC)CC1)CC2 (stereo not drawn) [Example 97, 1-((6-methoxy-1-methyl-2,3-dihydro-1H-inden-1-yl)methyl)-4-(2-methoxyphenoxy)piperidine] | – | pIC50 [1, 3]: 7.10
c1ccc2c(c1)COC21CCN(CC2COc3ccccc32)CC1 (stereo not drawn) [Example 391, 1′-((2,3-dihydrobenzofuran-3-yl)methyl)-3H-spiro[isobenzofuran-1,4′-piperidine]] | – | IC50 [2]: 14.1 µM
c1ccc2c(c1)CC(CN1CCC3(CC1)OCc1ccccc13)C2 [Example 392, 1′-((2,3-dihydro-1H-inden-2-yl)methyl)-3H-spiro[isobenzofuran-1,4′-piperidine]] | – | IC50 [2]: 1.59 µM
c1ccc2c(c1)CC1(CCN(CC3CCc4cccnc43)CC1)O2 (stereo not drawn) [Example 394, 1′-((6,7-dihydro-5H-cyclopenta[b]pyridin-7-yl)methyl)-3H-spiro[benzofuran-2,4′-piperidine]] | < 4.96 | –
c1ccc2c(c1)CC1(CCN(CC3COc4ccccc43)CC1)O2 (stereo not drawn) [Example 395, 1′-((2,3-dihydrobenzofuran-3-yl)methyl)-3H-spiro[benzofuran-2,4′-piperidine]] | < 5.00 | –
c1ccc2c(c1)CC1(CCN(CC3Cc4cccnc4C3)CC1)O2 (stereo not drawn) [Example 397, 1′-((6,7-dihydro-5H-cyclopenta[b]pyridin-6-yl)methyl)-3H-spiro[benzofuran-2,4′-piperidine]] | 5.56 | –
c1ccc2c(c1)CC1(CCN(CC3Cc4ccncc4C3)CC1)O2 (stereo not drawn) [Example 398, 1′-((6,7-dihydro-5H-cyclopenta[c]pyridin-6-yl)methyl)-3H-spiro[benzofuran-2,4′-piperidine]] | 5.02 | –
c1ccc2c(c1)CCC1(CCN(CC3CCc4ncccc43)CC1)O2 (stereo not drawn) [Example 407, 1′-((6,7-dihydro-5H-cyclopenta[b]pyridin-5-yl)methyl)spiro[chromane-2,4′-piperidine]] | 5.44 | –
c1ccc2c(c1)CCC1(CCN(CC3CCc4cnccc43)CC1)O2 (stereo not drawn) [Example 408, 1′-((6,7-dihydro-5H-cyclopenta[c]pyridin-5-yl)methyl)spiro[chromane-2,4′-piperidine]] | 6.13 | –
OC1(CN2CCC3(CCc4ccccc4O3)CC2)COCc2ccccc21 (stereo not drawn) [Example 413, 4-(spiro[chromane-2,4′-piperidin]-1′-ylmethyl)isochroman-4-ol] | 5.96 | –

Structure (SMILES) | pIC50 [2] | also measured
c1ccc(CN2CCC3(CCc4ccccc4O3)CC2)cc1 [Example 415, 1′-benzylspiro[chromane-2,4′-piperidine]] | 5.67 | –
COc1ccccc1CN1CCC2(CCc3ccccc3O2)CC1 [Example 416, l′-(2-methoxybenzyl) spiro[chromane-2,4′-piperidine]] | 5.98 | –
C[C@@H]1C[C@]2(CCc3ccccc3O2)CCN1CCN1CCc2ccccc2C1=O [Example 423, 2-(2-((2S,2′R)-2′-methylspiro[chromane-2,4′-piperidin]-1′-yl)ethyl)-3,4-dihydroisoquinolin-1(2H)-one] | 5.55 | –
C[C@H]1C[C@@]2(CCc3ccccc3O2)CCN1CCN1CCc2ccccc2C1=O [Example 424, 2-(2-((2R,2′S)-2′-methylspiro[chromane-2,4′-piperidin]-1′-yl)ethyl)-3,4-dihydroisoquinolin-1(2H)-one] | 7.30 | –
C[C@H]1C[C@]2(CCc3ccccc3O2)CCN1CCN1CCc2ccccc2C1=O [Example 425, 2-(2-((2S,2′S)-2′-methylspiro[chromane-2,4′-piperidin]-1′-yl)ethyl)-3,4-dihydroisoquinolin-1(2H)-one] | 6.92 | –
c1ccc(CCN2CCC3(CCc4ccccc4O3)CC2)cc1 [Example 427, l′-phenethylspiro[chromane-2,4′-piperidine]] | – | inhibition at 10 µM ([1]; 10 μM compound, hNaV1.2 CHO cells, slow inactivated state, read-out: NaV1.2 (% inh), 10 μM): 81%
c1ccc2c(c1)CCC1(CCN(CCO[C@@H]3CCc4ccccc43)CC1)O2 [Example 431, (R)-1′-(2-((2,3-dihydro-1H-inden-1-yl)oxy)ethyl)spiro[chromane-2,4′-piperidine]] | 6.15 | –
C[C@H]1C[C@]2(CCc3ccccc3O2)CCN1CCO[C@H]1CCc2ccccc21 [Example 433, (2S,2′S)-1′-(2-(((S)-2,3-dihydro-1H-inden-1-yl)oxy)ethyl)-2′-methylspiro[chromane-2,4′-piperidine]] | 6.49 | –
C[C@@H]1C[C@@]2(CCc3ccccc3O2)CCN1CCO[C@H]1CCc2ccccc21 [Example 434, (2R,2′R)-1′-(2-(((S)-2,3-dihydro-1H-inden-1-yl)oxy)ethyl)-2′-methylspiro[chromane-2,4′-piperidine]] | 6.14 | –
C[C@@H]1C[C@]2(CCc3ccccc3O2)CCN1CCO[C@H]1CCc2ccccc21 [Example 435, (2S,2′R)-1′-(2-(((S)-2,3-dihydro-1H-inden-1-yl)oxy)ethyl)-2′-methylspiro[chromane-2,4′-piperidine]] | 6.43 | –
O=C1CC2(CCN(CC3CCc4ccccc43)CC2)Oc2ccccc21 (stereo not drawn) [Example 444, l′-((2,3-dihydro-1H-inden-1-yl)methyl)spiro[chromane-2,4′-piperidin]-4-one] | 5.84 | –
NC(=O)N1c2ccccc2C=Cc2ccccc21 [carbamazepine, reference compound] | – | IC50 [1, 4]: 19 µM; IC50 [1, 5]: 22 µM
COC[C@@H](NC(C)=O)C(=O)NCc1ccccc1 [lacosamide, reference compound] | – | pIC50 [1]: 4.19
Nc1nnc(-c2cccc(Cl)c2Cl)c(N)n1 [lamotrigine, reference compound] | – | IC50 [1, 4]: 34 µM; IC50 [1, 5]: 33 µM; IC50 [1, 6]: 25 µM
CN1CCN(c2ncc(-c3cc(Cl)cc(Cl)c3Cl)c(N)n2)CC1 [sipatrigine] | – | IC50 [1, 4]: 1.6 µM; IC50 [1, 5]: 2.8 µM; IC50 [1, 6]: 0.6 µM; IC50 ([1]; Test 4, read-out: IC50 (μM) for NaV1.2 slow inactivated state, Test 4): 0.5 µM
